Test results published in US10882844B2, “Compounds useful as immunomodulators” (Bristol-Myers Squibb Company, priority 2016, dated 2021).
pIC50: −log10 of the molar value. Read-outs that look alike come from different tables or passages of the source.

Biological target: PD-1/PD-L1 (Homo sapiens (Human), UniProt Q9NZQ7)
Test: PD-1/PD-L1 Homogenous Time-Resolved Fluorescence (HTRF) binding assay
Details: PD-1-Ig / PD-L1-His HTRF, read-out: Range or IC50
Excerpt: The ability of the compounds of formula (I) to bind to PD-L1 was investigated using a PD-1/PD-L1 Homogenous Time-Resolved Fluorescence (HTRF) binding assay.
Homogenous Time-Resolved Fluorescence (HTRF) binding assay.
The interaction of PD-1 and PD-L1 can be assessed using soluble, purified preparations of the extracellular domains of the two proteins. The PD-1 and PD-L1 protein extracellular domains were expressed as fusion proteins with detection tags, for PD-1, the tag was the Fc portion of Immunoglobulin (PD-1-Ig) and for PD-L1 it was the 6 histidine motif (PD-L1-His). All binding studies were performed in an HTRF assay buffer consisting of dPBS supplemented with 0.1% […] bovine serum albumin and 0.05% (v/v) Tween-20. For the h/PD-L1-His binding assay, inhibitors were pre-incubated with PD-L1-His (10 nM final) for 15 m in 4 μl of assay buffer, followed by addition of PD-1-Ig (20 nM final) in 1 μl of assay buffer and further incubation for 15 m. HTRF detection was achieved using europium crypate-labeled anti-Ig (1 nM final) and allophycocyanin (APC) labeled anti-His (20 nM final). Antibodies were diluted in HTRF detection buffer and 5 μl was dispensed on top of the binding reaction. The reaction mixture was allowed to equilibrate for 30 minutes and the resulting signal (665 nm/620 nm ratio) was obtained using an EnVision fluorometer. Additional binding assays were established between the human proteins PD-1-Ig/PD-L2-His (20 & 5 nM, respectively) and CD8O-His/PD-L1-Ig (100 & 10 nM, respectively).
Recombinant Proteins: Human PD-1 (25-167) with a C-terminal human Fc domain of immunoglobulin G (Ig) epitope tag [hPD-1 (25-167)-3S-IG] and human PD-L1 (18-239) with a C-terminal His epitope tag [hPD-L1(18-239)-TVMV-His] were expressed in HEK293T cells and purified sequentially by ProteinA affinity chromatography and size exclusion chromatography. Human PD-L2-His and CD80-His was obtained through commercial sources.
The table below lists the IC50 values for representative examples of this disclosure measured in the PD-1/PD-L1 Homogenous Time-Resolved Fluorescence (HTRF) binding assay. Ranges are as follows: A=0.18 nM-0.99 nM; B=1.0 nM-5.0 nM; C=5.01 nM-10.1 nM; D=10.2 nM-200 nM; E=201 nM→10 uM

PD-1/PD-L1, sequence (Q9NZQ7 other isoform, or with tags, fused parts or gaps): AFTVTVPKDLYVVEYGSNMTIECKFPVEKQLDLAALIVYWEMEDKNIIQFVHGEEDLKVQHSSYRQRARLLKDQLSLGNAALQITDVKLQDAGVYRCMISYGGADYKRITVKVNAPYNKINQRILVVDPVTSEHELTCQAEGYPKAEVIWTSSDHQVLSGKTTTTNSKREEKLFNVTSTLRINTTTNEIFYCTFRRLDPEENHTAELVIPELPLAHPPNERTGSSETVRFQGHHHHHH

| SMILES | pIC50 (value given as range class) | pIC50 (value given as number) |
| --- | --- | --- |
| Cc1c(COc2cc(OCc3cncc(C#N)c3)c(CO)cc2Cl)cccc1-c1ccc2oc(C3CCN(C)CC3)nc2c1 [Example 1021, 5-((4-chloro-2-(hydroxymethyl)-5-((2-methyl-3-(2-(1-methylpiperidin-4-yl)benzo[d]oxazol-5-yl)benzyl)oxy)phenoxy)methyl)nicotinonitrile] | 8.00 to 8.30 | – |
| Cc1c(COc2cc(OCc3cncc(C#N)c3)c(CN3CCCC[C@H]3C(=O)O)cc2Cl)cccc1-c1ccc2oc(C3CCN(c4ccccc4)CC3)nc2c1 [Example 1022, (S)-1-(5-chloro-2-((5-cyanopyridin-3-yl)methoxy)-4-((2-methyl-3-(2-(1-phenylpiperidin-4-yl)benzo[d]oxazol-5-yl)benzyl)oxy)benzyl)piperidine-2-carboxylic Acid] | 6.70 to 7.99 | – |
| COc1cc(OCc2cccc(-c3ccc4oc(C5CCN(c6ccccc6)CC5)nc4c3)c2C)c(Cl)cc1CN1CCCC[C@H]1C(=O)O [Example 1023, (S)-1-(5-chloro-2-methoxy-4-((2-methyl-3-(2-(1-phenylpiperidin-4-yl)benzo[d]oxazol-5-yl)benzyl)oxy)benzyl)piperidine-2-carboxylic Acid] | 5.00 to 6.70 | – |
| Cc1c(COc2cc(OCc3cncc(C#N)c3)c(CN3CCCC[C@H]3C(=O)O)cc2Cl)cccc1-c1ccc2ncc(C3=CCCNC3)nc2c1 [Example 1027, (S)-1-(5-Chloro-2-((5-cyanopyridin-3-yl)methoxy)-4-((2-methyl-3-(3-(1,2,5,6-tetra-hydropyridin-3-yl)quinoxalin-6-yl)benzyl)oxy)benzyl)piperidine-2-carboxylic Acid] | – | 8.77 |
| Cc1c(COc2cc(OCc3cncc(C#N)c3)c(CN3CCCC[C@H]3C(=O)O)cc2Cl)cccc1-c1ccc2ncc(C3=CC4CCC(C3)N4C(=O)OC(C)(C)C)nc2c1 (some centres unmarked) [Example 1028] | 5.00 to 6.70 | – |
| Cc1c(COc2cc(OCc3cncc(C#N)c3)c(CN3CCCC[C@H]3C(=O)O)cc2Cl)cccc1-c1ccc2ncc(C3=CC4CCC(C3)N4)nc2c1 (stereo partly drawn) [Example 1029, (2S)-1-(4-((3-(3-(8-Azabicyclo[3.2.1]oct-2-en-3-yl)quinoxalin-6-yl)-2-methylbenzyl)-oxy)-5-chloro-2-((5-cyanopyridin-3-yl)methoxy)benzyl)piperidine-2-carboxylic acid] | 8.30 to 9.00 | – |
| Cc1c(COc2cc(OCc3cncc(C#N)c3)c(CN3CCCC[C@H]3C(=O)O)cc2Cl)cccc1-c1ccc2ncc(N3CCN(C)CC3)nc2c1 [Example 1031, (S)-1-(5-chloro-2-((5-cyanopyridin-3-yl)methoxy)-4-((2-methyl-3-(3-(4-methylpiperazin-1-yl)quinoxalin-6-yl)benzyl)oxy)benzyl)piperidine-2-carboxylic Acid] | 8.00 to 8.30 | – |
| Cc1c(COc2cc(OCc3cncc(C#N)c3)c(CN(C)C(CO)CO)cc2Cl)cccc1-c1ccc2oc(N3C[C@@H]4C[C@H]3CN4C)nc2c1 [Example 2001] | – | 8.42 |
| Cc1c(COc2cc(OCc3cncc(C#N)c3)c(CN3CCCC[C@H]3C(=O)O)cc2Cl)cccc1-c1ccc2oc(N3C[C@@H]4C[C@H]3CN4C)nc2c1 [Example 2002, (S)-1-(5-chloro-2-((5-cyanopyridin-3-yl)methoxy)-4-((2-methyl-3-(2-((1S,4S)-5-methyl-2,5-diazabicyclo[2.2.1]heptan-2-yl)benzo[d]oxazol-5-yl)benzyl)oxy)benzyl)piperidine-2-carboxylic Acid] | 8.00 to 8.30 | – |
| Cc1c(COc2cc(OCc3cncc(C#N)c3)c(CN[C@@](C)(CO)C(=O)O)cc2Cl)cccc1-c1ccc2oc(N3CCN(C)CC3)nc2c1 [Example 2011, (S)-2-((5-chloro-2-((5-cyanopyridin-3-yl)methoxy)-4-((2-methyl-3-(2-(4-methylpiperazin-1-yl)benzo[d]oxazol-5-yl)benzyl)oxy)benzyl)amino)-3-hydroxy-2-methylpropanoic Acid] | 8.30 to 9.00 | – |
| CCC[C@H](NCc1cc(Cl)c(OCc2cccc(-c3ccc4oc(N5CCN(C)CC5)nc4c3)c2C)cc1OCc1cncc(C#N)c1)C(=O)O [Example 2012, (S)-2-((5-chloro-2-((5-cyanopyridin-3-yl)methoxy)-4-((2-methyl-3-(2-(4-methylpiperazin-1-yl)benzo[d]oxazol-5-yl)benzyl)oxy)benzyl)amino)pentanoic Acid] | – | 8.14 |
| Cc1c(COc2cc(OCc3cncc(C#N)c3)c(CN[C@H](C(=O)O)C(C)C)cc2Cl)cccc1-c1ccc2oc(N3CCN(C)CC3)nc2c1 [Example 2013, (S)-2-((5-chloro-2-((5-cyanopyridin-3-yl)methoxy)-4-((2-methyl-3-(2-(4-methylpiperazin-1-yl)benzo[d]oxazol-5-yl)benzyl)oxy)benzyl)amino)-3-methylbutanoic Acid] | 8.30 to 9.00 | – |
| Cc1c(COc2cc(OCc3cncc(C#N)c3)c(CN(C)C(CO)CO)cc2Cl)cccc1-c1ccc2oc(N3CCN(C)CC3)nc2c1 [Example 2014] | 8.30 to 9.00 | – |
| Cc1c(COc2cc(OCc3cncc(C#N)c3)c(CN(C)[C@@H](CO)C(=O)O)cc2Cl)cccc1-c1ccc2oc(N3CCN(C)CC3)nc2c1 [Example 2016, N-(5-chloro-2-((5-cyanopyridin-3-yl)methoxy)-4-((2-methyl-3-(2-(4-methylpiperazin-1-yl)benzo[d]oxazol-5-yl)benzyl)oxy)benzyl)-N-methyl-L-serine] | 8.30 to 9.00 | – |

Further lines, results first:

| pIC50 (value given as range class) | pIC50 (value given as number) | SMILES |
| --- | --- | --- |
| 9.00 to 9.74 | – | Cc1c(COc2cc(OCc3cncc(C#N)c3)c(CN[C@](C)(CO)C(=O)O)cc2Cl)cccc1-c1ccc2oc(C3CCN(C)CC3)nc2c1 [Example 1020, (R)-2-((5-chloro-2-((5-cyanopyridin-3-yl)methoxy)-4-((2-methyl-3-(2-(1-methylpiperidin-4-yl)benzo[d]oxazol-5-yl)benzyl)oxy)benzyl)amino)-3-hydroxy-2-methylpropanoic Acid] |
| 8.30 to 9.00 | – | COC(=O)C1CCC(c2nc3cc(-c4cccc(COc5cc(OCc6cncc(C#N)c6)c(CN6CCCC[C@H]6C(=O)O)cc5Cl)c4C)ccc3o2)CC1 (stereo partly drawn) [Example 1024, (S)-1-(5-chloro-2-((5-cyanopyridin-3-yl)methoxy)-4-((3-(2-(4-(methoxycarbonyl)cyclohexyl)benzo[d]oxazol-5-yl)-2-methylbenzyl)oxy)benzyl)piperidine-2-carboxylic acid] |
| 9.00 to 9.74 | – | Cc1c(COc2cc(OCc3cncc(C#N)c3)c(CN3CCCC[C@H]3C(=O)O)cc2Cl)cccc1-c1ccc2ncc(C3=CCNCC3)nc2c1 [Example 1030, (S)-1-(5-chloro-2-((5-cyanopyridin-3-yl)methoxy)-4-((2-methyl-3-(3-(1,2,3,6-tetrahydropyridin-4-yl)quinoxalin-6-yl)benzyl)oxy)benzyl)piperidine-2-carboxylic Acid] |
| 8.30 to 9.00 | – | Cc1c(COc2cc(OCc3cncc(C#N)c3)c(CN3CCCC[C@H]3C(=O)O)cc2Cl)cccc1-c1ccc2oc(N3CCN(C)CC3)nc2c1 [Example 2007, (S)-1-(5-chloro-2-((5-cyanopyridin-3-yl)methoxy)-4-((2-methyl-3-(2-(4-methylpiperazin-1-yl)benzo[d]oxazol-5-yl)benzyl)oxy)benzyl)piperidine-2-carboxylic Acid] |
| 8.30 to 9.00 | – | Cc1c(COc2cc(OCc3cncc(C#N)c3)c(CNC(CO)CO)cc2Cl)cccc1-c1ccc2oc(N3CCN(C)CC3)nc2c1 [Example 2008] |
| 9.00 to 9.74 | – | Cc1c(COc2cc(OCc3cncc(C#N)c3)c(CNC(C)(CO)CO)cc2Cl)cccc1-c1ccc2oc(N3CCN(C)CC3)nc2c1 [Example 2009] |
| 8.30 to 9.00 | – | Cc1c(COc2cc(OCc3cncc(C#N)c3)c(CN[C@@H](CO)C(=O)O)cc2Cl)cccc1-c1ccc2oc(N3CCN(C)CC3)nc2c1 [Example 2010, (5-chloro-2-((5-cyanopyridin-3-yl)methoxy)-4-((2-methyl-3-(2-(4-methylpiperazin-1-yl)benzo[d]oxazol-5-yl)benzyl)oxy)benzyl)-L-serine] |
| 9.00 to 9.74 | – | Cc1c(COc2cc(OCc3cncc(C#N)c3)c(CN(C)C(C)(CO)CO)cc2Cl)cccc1-c1ccc2oc(N3CCN(C)CC3)nc2c1 [Example 2015] |
| 9.00 to 9.74 | – | Cc1c(COc2cc(OCc3cncc(C#N)c3)c(CN(C)[C@@](C)(CO)C(=O)O)cc2Cl)cccc1-c1ccc2oc(N3CCN(C)CC3)nc2c1 [Example 2017, (S)-2-((5-chloro-2-((5-cyanopyridin-3-yl)methoxy)-4-((2-methyl-3-(2-(4-methylpiperazin-1-yl)benzo[d]oxazol-5-yl)benzyl)oxy)benzyl)(methyl)amino)-3-hydroxy-2-methylpropanoic Acid] |
